Data published in patent US20260124237A1, “CARTILAGE REGENERATION COMPOSITION” (KOBAYASHI PHARMACEUTICAL CO., LTD., priority 2021, published 2026).

Columns and labels:
Assay type in all cases: cell-based
[1] = tested on: Human iPS cell-derived mesenchymal stem cells; assay: Differentiation to cartilaginous cells and cartilage matrix production in two-dimensional culture (Alcian blue); conditions: Table 2a: garcinia extract or glucosamine (B4) alone; about 10 days culture; Alcian blue OD 620 nm; control = 1
Description: In accordance with PLOS ONE, (US), 2014, 9 (12), e112291. DOI: 10.1371/journal.pone.0112291 (hereinafter, described as “Document A”), mesenchymal stem cells were induced from human normal iPS cells via neural crest cells, added with an equivalent amount of a cell freezing damage protection liquid CP-1 (manufactured by KYOKUTO PHARMACEUTICAL INDUSTRIAL CO., LTD), and cryopreserved.
Human iPS cell-derived mesenchymal stem cells were thawed and grown, and seeded in a 96 well plate (manufactured by Corning) in 1×10^5 cells/well. After 24 hours, the culture supernatant was removed, and replaced with a culture medium to induce differentiation to cartilaginous cells in accordance with Document A. To the culture medium to induce differentiation to cartilaginous cells, the garcinia extract and/or the component (B) (components (B1) to (B4)) as test substances were added so that the final concentration was the concentration shown in Tables 1 to 3. No test substance was added to the control group. The cells were cultured for about 10 days, and then fixed with a 4% paraformaldehyde·phosphate buffer (manufactured by FUJIFILM Wako Pure Chemical Corporation). After fixed, the cells were stained with an Alcian blue solution (manufactured by MUTO PURE CHEMICALS CO., LTD.) for 1 hour, and the dye was eluted using a 6 M guanidine hydrochloride solution (manufactured by Tokyo Chemical Industry Co., Ltd.). The eluate was transferred to a 96 well plate, and the OD value of each well at 620 nm was measured with a microplate reader to measure the amount of matrix produced by differentiation-induced cartilaginous cells.

[2] = tested on: human bone marrow-derived mesenchymal stem cells; assay: Cartilage matrix production activity (amount of GAG in pellets); conditions: FIGS. 1 to 4; pellets after 21 days three-dimensional culture, papain digestion
Experimental: LLC is solubilized in 100 mM phosphate buffer pH 7.4, 5 mM L-cysteine hydrochloride monohydrate, and 10 mM EDTA), and then the amount of GAG (glycosaminoglycan) was measured using a GAG quantification kit (manufactured by Blyscan). The larger the amount of GAG, the larger the amount of cartilage matrix produced. […] The results of the differentiated cartilaginous cell area ratio are shown in Table 12 (a) and Table 12 (b), and the measurement results of the amount of GAG are shown in FIG. 5.

[3] = tested on: human bone marrow-derived mesenchymal stem cells; assay: Induction of differentiation to cartilaginous cells in three-dimensional culture (safranin O area); conditions: for activity to induce differentiation to cartilaginous cells (in words): summary of Tables 4 to 11; for Differentiated cartilaginous cell area ratio: control = 1
Experimental: In accordance with Tissue Engineering, (US), 2010, 16 (1), p 81-91. DOI: 10.1089=ten.tec.2008.0693, mesenchymal stem cells were isolated from human normal bone marrow in a dedicated culture medium, and then the cells were grown. The grown cells were recovered, added with an equivalent amount of a cell freezing damage protection liquid CP-1 (KYOKUTO PHARMACEUTICAL INDUSTRIAL CO., LTD), and cryopreserved.
It is known that cartilaginous cells dedifferentiate in two-dimensional culture. As a culture system of cartilaginous cells closer to nature, a technique called three-dimensional culture is adopted. The thawed and grown human bone marrow-derived mesenchymal stem cells were dispensed into 15 mL tubes (made of TPP) by 2.5×10^5 cells, and centrifuged at 1000 rpm for 3 minutes at room temperature. The supernatant was removed and replaced with 0.5 mL of a culture medium to induce differentiation to cartilaginous cells in accordance with Document A. At the same time, as test substances, the garcinia extract, HCA·Ca, and/or the component (B) (components (B1) to (B4)) were added at the concentration shown in Tables 4 to 11. After cultured for 21 days, the cells were fixed in a 4% paraformaldehyde·phosphate buffer for 12 hours, dehydrated in 70% ethanol, and then embedded in paraffin, and then specimens were prepared. In the prepared specimen, the acidic polysaccharides as a cartilage matrix was stained with safranin O, and then the morphology of differentiated cartilaginous cells was observed using an optical microscope (magnification: 10 times). Furthermore, regarding the area showing a red color by safranin O staining, the relative area (differentiated cartilaginous cell area ratio) was calculated using an image analysis software Image J such that the control (Comparative Example 1) had the area of 1.
Except that the component (component (B4)) shown in Table 12 (a) and Table 12 (b) was used as the component (B), and the addition amount of the component (A) and the component (B) (component (B4)) was as shown in Table 12 (a) and Table 12 (b), the same procedure as in Test example 2 was carried out to calculate the differentiated cartilaginous cell area ratio and measure the amount of GAG. The results of the differentiated cartilaginous cell area ratio are shown in Table 12 (a) and Table 12 (b), and the measurement results of the amount of GAG are shown in FIG. 5.

[4] = Table 12a, Test Example 3: HCA·Ca 25 μM or constituent sugar (B4) 2.5 μM alone
[5] = Table 6: garcinia extract and/or glucosamine (B4), 21 days, safranin O red area
[6] = Table 7: HCA·Ca and/or glucosamine (B4), 21 days, safranin O red area

| Compound | Ratio of cartilage matrix production [1] | Differentiated cartilaginous cell area ratio [3, 4] | further results |
| --- | --- | --- | --- |
| N[C@H]1C(O)O[C@H](CO)[C@@H](O)[C@@H]1O (stereo partly shown) [compound 7, Glucosamine] | 1.01 |  |  |
| Sodium hyaluronate [hyaluronic acid] |  |  | cartilage matrix production activity (amount of GAG, in words) [2]: almost no activity to induce differentiation to cartilaginous cells; activity to induce differentiation to cartilaginous cells (in words) [3]: almost no activity to induce differentiation to cartilaginous cells |
| O=C([O-])C[C@@](O)(C(=O)[O-])[C@H](O)C(=O)[O-].O=C([O-])C[C@@](O)(C(=O)[O-])[C@H](O)C(=O)[O-].[Ca+2].[Ca+2].[Ca+2] [compound 39, (−) Hydroxycitric acid-3 calcium] |  | 1.8 |  |
| CC(=O)N[C@H]1C(O)O[C@H](CO)[C@H](O)[C@@H]1O (stereo partly drawn) [compound 45, N-acetyl-D-galactosamine] |  | 1 |  |
| N[C@H]1C(O)O[C@H](CO)[C@@H](O)[C@@H]1O (stereo partly shown) [compound 14, Glucosamine] | 1.00 |  |  |
| CC(=O)N[C@H]1C(O)O[C@H](CO)[C@@H](O)[C@@H]1O (stereo partly drawn) [compound 41, N-acetyl-D-glucosamine] |  | 1.8 |  |
| N[C@H]1C(O)O[C@H](CO)[C@@H](O)[C@@H]1O (stereo partly shown) [compound 10, Glucosamine] | 1.01 |  |  |
| CC(=O)N[C@H]1C(O)O[C@H](COS(=O)(=O)[O-])[C@H](O)[C@@H]1O.[Na+] (stereo partly drawn) [compound 46, Sodium N-acetyl-D-galactosamine 6-sulfate] |  | 1.4 |  |
| N[C@H]1C(O)O[C@H](CO)[C@@H](O)[C@@H]1O (stereo partly shown) [compound 13, Glucosamine] | 1.00 |  |  |
| N[C@H]1C(O)O[C@H](CO)[C@@H](O)[C@@H]1O (stereo partly shown) [compound 34, Glucosamine] |  |  | Differentiated cartilaginous cell area ratio [3, 5]: 0.2; Differentiated cartilaginous cell area ratio [3, 6]: 0.2 |
| Cl.N[C@H]1C(O)O[C@H](CO)[C@@H](O)[C@@H]1O (stereo partly drawn) [compound 40, D-(+)-glucosamine hydrochloride] |  | 0.6 |  |
| N[C@H]1C(O)O[C@H](CO)[C@@H](O)[C@@H]1O (stereo partly shown) [compound 8, Glucosamine] | 1.01 |  |  |
| CC(=O)N[C@H]1C(O)O[C@H](COS(=O)(=O)[O-])[C@@H](O)[C@@H]1O.[Na+] (stereo partly drawn) [compound 42, Sodium N-acetyl-D-glucosamine 6-sulfate] |  | 2 |  |
| N[C@H]1C(O)O[C@H](CO)[C@@H](O)[C@@H]1O (stereo partly shown) [compound 12, Glucosamine] | 1.02 |  |  |
| N[C@H]1C(O)O[C@H](CO)[C@@H](O)[C@@H]1O (stereo partly shown) [compound 33, Glucosamine] |  |  | Differentiated cartilaginous cell area ratio [3, 5]: 0.1; Differentiated cartilaginous cell area ratio [3, 6]: 0.1 |
| O=C[C@H](O)[C@@H](O)[C@H](O)[C@H](O)C(=O)O [compound 43, D-glucuronic acid] |  | 0.7 |  |
| O=C([O-])C[C@@](O)(C(=O)[O-])[C@H](O)C(=O)[O-].O=C([O-])C[C@@](O)(C(=O)[O-])[C@H](O)C(=O)[O-].[Ca+2].[Ca+2].[Ca+2] [compound 32, (−) Hydroxycitric acid-3 calcium] |  |  | Differentiated cartilaginous cell area ratio ([3]; Table 5: HCA·Ca and/or chondroitin sulfate (B1), 21 days, safranin O red area): 1.7; Differentiated cartilaginous cell area ratio [3, 6]: 1.7; Differentiated cartilaginous cell area ratio ([3]; Table 9: HCA·Ca and/or hyaluronic acid (B3), 21 days, safranin O red area): 3.5; Differentiated cartilaginous cell area ratio ([3]; Table 11: HCA·Ca and/or proteoglycan (B2), 21 days, safranin O red area): 1.5 |
| Cl.N[C@H]1C(O)O[C@H](CO)[C@H](O)[C@@H]1O (stereo partly drawn) [compound 44, D-(+)-galactosamine hydrochloride] |  | 0.7 |  |
| N[C@H]1C(O)O[C@H](CO)[C@@H](O)[C@@H]1O (stereo partly shown) [compound 9, Glucosamine] | 1.01 |  |  |
| N[C@H]1C(O)O[C@H](CO)[C@@H](O)[C@@H]1O (stereo partly shown) [glucosamine, Glucosamine] |  |  | cartilage matrix production activity (amount of GAG, in words) [2]: reduce the cartilage matrix production activity; activity to induce differentiation to cartilaginous cells (in words) [3]: reduce the activity to induce differentiation to cartilaginous cells |
| O=C([O-])C[C@@](O)(C(=O)[O-])[C@H](O)C(=O)[O-].O=C([O-])C[C@@](O)(C(=O)[O-])[C@H](O)C(=O)[O-].[Ca+2].[Ca+2].[Ca+2] [calcium hydroxycitrate, (−) Hydroxycitric acid-3 calcium] |  |  | cartilage matrix production activity (amount of GAG, in words) [2]: exhibits a cartilage matrix production activity, the degree of which is limited; activity to induce differentiation to cartilaginous cells (in words) [3]: exhibits an activity to induce differentiation to cartilaginous cells, the degree of which is limited |
| N[C@H]1C(O)O[C@H](CO)[C@@H](O)[C@@H]1O (stereo partly shown) [compound 11, Glucosamine] | 1.01 |  |  |
| N[C@H]1C(O)O[C@H](CO)[C@@H](O)[C@@H]1O (stereo partly shown) [compound 6, Glucosamine] | 1.00 |  |  |
